The values below come from ChEMBL document CHEMBL4152347 (J Med Chem, 2018).

The nature of series [1]: Dissociation constant, pKa of the compound. Type of series: physicochemical.
The nature of series [2]: in vitro. As to conditions: human, MT2 cells; call rule not given here.
Series [3] in a line: in vitro. Conditions: rat, liver microsomes.
Description: Half life in rat liver microsomes at 0.5 uM after 1 hr in presence of NADPH by LC-MS/MS analysis
A short description of series [4]: in vitro. As to conditions: human, liver microsomes.
Description: Half life in human liver microsomes at 0.5 uM after 1 hr in presence of NADPH by LC-MS/MS analysis
Series [5] relates to Human immunodeficiency virus 1. The series is described as follows: microbe, parasite or virus in culture. As to conditions: Human immunodeficiency virus 1, MT2.
Description: Antiviral activity against wild type HIV1 infected in human MT2 cells after 4 to 5 days by dual luciferase reporter gene assay
Series [6] concerns Human immunodeficiency virus 1. The experiment in a line: microbe, parasite or virus in culture. As to conditions: Human immunodeficiency virus 1, MT2. The source holds these as a separate data set.
The test system of series [7] is Human immunodeficiency virus 1. The experiment in a line: microbe, parasite or virus in culture. Conditions: Human immunodeficiency virus 1, MT2. This is another data set of the same source.
Description: Antiviral activity against HIV1 expressing gag delta V370 mutant infected in human MT2 cells after 4 to 5 days by dual luciferase reporter gene assay
A short description of series [8]: in vivo. As to conditions: Sprague-Dawley, rat, po, 5 mg/kg.
Series [9] in a line: physchem. As to conditions: aqueous.
Description: Aqueous solubility of the compound
Series [10] concerns Human immunodeficiency virus 1. The experiment in a line: microbe, parasite or virus in culture. As to conditions: Human immunodeficiency virus 1, MT2. The source holds these as a separate data set.
Description: Antiviral activity against wild type HIV1 infected in human MT2 cells after 4 to 5 days in presence of 10% FBS and 40% human serum albumin by dual luciferase reporter gene assay
A short description of series [11]: Drug level in human plasma treated with [14C]4-[(1R,3aS,5aR,5bR,7aR,11aS,11bR,13aR,13bR)-3a-[2-(1,1-dioxo-1,4-thiazinan-4-yl)ethylamino]-1-isopropenyl-5a,5b,8,8,11a-pentamethyl-1,2,3,4,5,6,7,7a,11,11b,12,13,13a,13b-tetradecahydrocyclopenta[a]chrysen-9-yl]benzoic acid at 5 mg/kg, po administered via gavage by LC-MS/MS analysis. Type of series: ADME, organism-based. As to conditions: in vivo.

Series [12] can be described thus: Drug level in Sprague-Dawley rat plasma treated with [14C]4-[(1R,3aS,5aR,5bR,7aR,11aS,11bR,13aR,13bR)-3a-[2-(1,1-dioxo-1,4-thiazinan-4-yl)ethylamino]-1-isopropenyl-5a,5b,8,8,11a-pentamethyl-1,2,3,4,5,6,7,7a,11,11b,12,13,13a,13b-tetradecahydrocyclopenta[a]chrysen-9-yl]benzoic acid by LC-MS/MS analysis. Type of series: ADME, cell-free.
A short description of series [13]: Drug level in beagle dog plasma treated with [14C]4-[(1R,3aS,5aR,5bR,7aR,11aS,11bR,13aR,13bR)-3a-[2-(1,1-dioxo-1,4-thiazinan-4-yl)ethylamino]-1-isopropenyl-5a,5b,8,8,11a-pentamethyl-1,2,3,4,5,6,7,7a,11,11b,12,13,13a,13b-tetradecahydrocyclopenta[a]chrysen-9-yl]benzoic acid at 5 mg/kg, po administered via gavage by LC-MS/MS analysis. Type of series: ADME, organism-based, Canis lupus familiaris. As to conditions: in vivo.

A short description of series [14]: Drug level in cynomolgus monkey plasma treated with [14C]4-[(1R,3aS,5aR,5bR,7aR,11aS,11bR,13aR,13bR)-3a-[2-(1,1-dioxo-1,4-thiazinan-4-yl)ethylamino]-1-isopropenyl-5a,5b,8,8,11a-pentamethyl-1,2,3,4,5,6,7,7a,11,11b,12,13,13a,13b-tetradecahydrocyclopenta[a]chrysen-9-yl]benzoic acid at 5 mg/kg, po administered via gavage by LC-MS/MS analysis. Type of series: ADME, organism-based, Macaca fascicularis. Conditions: in vivo.

Series [15] is described as follows: Solubility of compound in fasted state simulated intestinal fluid at pH 6.5. Format: physicochemical.
Series [16] is described as follows: Solubility of compound in fed state simulated intestinal fluid at pH 5. Format: physicochemical.
Series [17] is described as follows: in vivo. Conditions: Sprague-Dawley, rat, po, 5 mg/kg. The source holds these as a separate data set.
In series [18] the test system is Human immunodeficiency virus 1. The experiment in a line: Ratio of EC50 for antiviral activity against wild type HIV1 infected in human MT2 cells after 4 to 5 days in presence of 10% FBS plus […] by dual luciferase reporter gene assay to EC50 for antiviral activity against wild type HIV1 infected in human MT2 cells after 4 to 5 days by dual luciferase reporter gene assay. Type of series: functional.

Values after ≈ are worked out from the molar mass of the structure shown.

Take `C=C(C)[C@@H]1CC[C@]2(NCCN3CCOCC3)CC[C@]3(C)[C@H](CC[C@@H]4[C@@]5(C)CC=C(c6ccc(C(=O)O)cc6)C(C)(C)[C@@H]5CC[C@]43C)[C@@H]12`: the pKa in [1] stood at 8.2. Further, in series [2], the CC50 was greater than 10 µM. Besides, the half-life at 1 h, 0.5 µM in [3] and in series [4] was greater than 120 min throughout. Further, the EC50 in series [5] came to 8.3 nM; in [6], 13.2 nM; in [7] it was 47.4 nM.
With `C=C(C)[C@@H]1CC[C@]2(NCCN3C[C@@H]4C[C@H]3CS4(=O)=O)CC[C@]3(C)[C@H](CC[C@@H]4[C@@]5(C)CC=C(c6ccc(C(=O)O)cc6)C(C)(C)[C@@H]5CC[C@]43C)[C@@H]12`, the AUC(0-t) at 24 h in series [8] amounted to 27 µM·h. Moreover, the CC50 in series [2] is 7.34 µM. Further, the solubility in series [9] was less than 1 µg/mL. For the same compound, the half-life at 1 h, 0.5 µM in series [3] and in series [4] was greater than 120 min in each case. Also, the EC50 was 1.9 nM in [5], 11.1 nM in series [10], 2.8 nM in series [6] and 7.7 nM in [7].
Consider `C=C(C)[C@@H]1CC[C@]2(NCCN3CCS(=N)(=O)CC3)CC[C@]3(C)[C@H](CC[C@@H]4[C@@]5(C)CC=C(c6ccc(C(=O)O)cc6)C(C)(C)[C@@H]5CC[C@]43C)[C@@H]12`, for which the AUC(0-t) at 24 h in series [8] was found to be 20.7 µM·h. The compound also returned a CC50 in series [2] of 14 µM. Moreover, the solubility in series [9] is less than 1 µg/mL. Moreover, the half-life at 1 h, 0.5 µM in [3] and in series [4] was greater than 120 min in each case. The EC50 in series [5] was determined as 1.1 nM; in series [6] it was 1.5 nM; in [7], 7.5 nM.
For `C=C(C)[C@@H]1CC[C@]2(NCCN3CCS(=O)(=O)CC3)CC[C@]3(C)[C@H](CC[C@@H]4[C@@]5(C)CC=C(c6ccc(C(=O)OC)cc6)C(C)(C)[C@@H]5CC[C@]43C)[C@@H]12`, the Drug uptake entry in series [11], in [12], in series [13] and in [14] was “Active” throughout.
For `C=C(C)[C@@H]1CC[C@]2(NCCN3CCS(=O)(=O)CC3)CC[C@]3(C)[C@H](CC[C@@H]4[C@@]5(C)CC=C(c6ccc(C(=O)O)c(F)c6)C(C)(C)[C@@H]5CC[C@]43C)[C@@H]12`, the solubility in [15] is 140 µg/mL (≈ 197 µM); in series [16], 330 µg/mL (≈ 465 µM); in series [9] it was less than 1 µg/mL. The compound also showed an AUC(0-t) at 24 h in series [8] of 24.3 µM·h. Besides, it took 7.8 µM to reach half-maximal cytotoxicity in series [2] (CC50). In addition, the half-life at 1 h, 0.5 µM in series [3] and in [4] was greater than 120 min each time. Also, the EC50 in series [5] was 2.8 nM; in [10] it was 12.8 nM; in series [6], 3.4 nM; in [7], 9.7 nM.
`C=C(C)[C@@H]1CC[C@]2(NCCN3CCN(S(C)(=O)=O)CC3)CC[C@]3(C)[C@H](CC[C@@H]4[C@@]5(C)CC=C(c6ccc(C(=O)O)cc6)C(C)(C)[C@@H]5CC[C@]43C)[C@@H]12`: the AUC(0-t) at 24 h in series [8] came out at 28.6 µM·h. In addition, the midpoint of cytotoxicity in series [2], the CC50, lay at 10.7 µM. In [9], this compound gave a solubility of less than 1 µg/mL. The half-life at 1 h, 0.5 µM in [3] and in [4] was greater than 120 min throughout. The EC50 in series [5] came to 3.3 nM; in series [10] it was 26.1 nM; in series [6], 5.2 nM; in [7] it was 27.2 nM.
In series [1], `C=C(C)[C@@H]1CC[C@]2(CNCCCN3CCS(=O)(=O)CC3)CC[C@]3(C)[C@H](CC[C@@H]4[C@@]5(C)CC=C(c6ccc(C(=O)O)cc6)C(C)(C)[C@@H]5CC[C@]43C)[C@@H]12` displayed a pKa of 5.4. The same compound registered an AUC(0-t) at 24 h in [8] of 3.15 µM·h. Besides, the half-life at 1 h, 0.5 µM in series [3] and in series [4] was greater than 120 min each time.
As for `C=C(C)[C@@H]1CC[C@]2(C(=O)NCCCN3CCS(=O)(=O)CC3)CC[C@]3(C)[C@H](CC[C@@H]4[C@@]5(C)CC=C(c6ccc(C(=O)O)cc6)C(C)(C)[C@@H]5CC[C@]43C)[C@@H]12`, in [17], the AUC(0-t) at 6 h was 1.28 µM·h. In addition, the CC50 in series [2] came to 10.6 µM. Further, the half-life at 1 h, 0.5 µM in [3] and in [4] was greater than 120 min in each case. Besides, the EC50 amounted to 2.1 nM in series [5], 1.4 nM in series [6] and 42.8 nM in series [7].
On to `C=C(C)[C@@H]1CC[C@]2(NCCN3CCC(F)(F)CC3)CC[C@]3(C)[C@H](CC[C@@H]4[C@@]5(C)CC=C(c6ccc(C(=O)O)cc6)C(C)(C)[C@@H]5CC[C@]43C)[C@@H]12`, for which, in series [1], the pKa stood at 8.5. The compound further had a CC50 in series [2] greater than 10 µM. Besides, the half-life at 1 h, 0.5 µM in series [3] and in [4] was greater than 120 min in each case. Moreover, the EC50 came out at 5.1 nM in series [5], 14.1 nM in series [6] and 67.5 nM in [7].
Turning to `C=C(C)[C@@H]1CC[C@]2(N)CC[C@]3(C)[C@H](CC[C@@H]4[C@@]5(C)CC=C(c6ccc(C(=O)O)cc6)C(C)(C)[C@@H]5CC[C@]43C)[C@@H]12`, the Drug uptake result in series [11], in series [12], in series [13] and in series [14] was “Active” in each case.
Compound `C=C(C)[C@@H]1CC[C@]2(NCCCN3CCS(=O)(=O)CC3)CC[C@]3(C)[C@H](CC[C@@H]4[C@@]5(C)CC=C(c6ccc(C(=O)O)cc6)C(C)(C)[C@@H]5CC[C@]43C)[C@@H]12` showed an exposure AUC(0-t) at 6 h in [17] of 9.36 µM·h. This compound showed an AUC(0-t) at 24 h in series [8] of 9.61 µM·h. The compound further gave a CC50 in [2] of 15.8 µM. Also, the half-life at 1 h, 0.5 µM in [3] and in series [4] was greater than 120 min throughout. Moreover, the EC50 in series [5] was determined as 3.5 nM; in series [10], 23.6 nM; in series [6], 7.5 nM; in series [7] it was 37.3 nM.
For `C=C(C)[C@@H]1CC[C@]2(NCCN3CCCS(=O)(=O)CC3)CC[C@]3(C)[C@H](CC[C@@H]4[C@@]5(C)CC=C(c6ccc(C(=O)O)cc6)C(C)(C)[C@@H]5CC[C@]43C)[C@@H]12`, the “Ratio EC50” value in series [18] was 9.7. In series [2], the CC50 is 4.9 µM. The half-life at 1 h, 0.5 µM in series [3] and in series [4] was greater than 120 min throughout. Moreover, the half-maximal effective concentration (EC50) was 3.6 nM in [5] and 35.1 nM in series [10].
